Data from patent US8350064B2, “Fluorescent xanthenes and white light fluorophores” (Board of Supervisors of Louisiana State University And …, priority 2006, dated 2013).
Values joined by “and” are separate entries in the source; they are usually repeats but may differ in a detail not shown here. Equal entries are not always repeated. “Also recorded” adds a separate entry of the source. One block for each compound: values may come before it.

How the values were obtained:
[1] = pKa of SNAFR-2 from absorption and emission spectra as a function of pH; format: physicochemical; settings: 50 mM phosphate buffer with 0.25% DMSO
Procedure: SNAFR-2 was dissolved in 50 mM phosphate buffer with 0.25% DMSO. As the pH increased, the absorption band centered at 550 nm increased. We attributed this band to the anionic form (A). Concurrently, the absorption band at ca. 460 nm decreased. We attributed the 460 nm band to the neutral form (N). Four isosbestic points were observed, at 484, 394, 327, and 304 nm. The 484 nm isosbestic point is near the 488 nm Ar ion laser line. Thus ratiometric measurements using SNAFR-2 as a probe may be conducted with an Ar ion laser and common, commercially available filter sets.
FIGS. 1A through 1H depict the spectral properties of 30 μM SNAFR-2 in 50 mM phosphate buffer with 0.25% DMSO at various pH values. The arrows indicate the spectral changes as the pH increased in order: 7, 8, 8.5, 9 and 10. A=anionic form. N=neutral form. FIG. 1A depicts Absorption spectra. The * indicates the positions of isosbestic points. FIGS. 1B-D depict excitation spectra, with emission monitored at 400 nm, 540 nm, and 620 nm respectively. FIGS. 1E-H depict emission spectra with excitations at 325 nm, 488 nm, 514 nm, and 543 nm respectively, wavelengths that correspond to common laser lines. All fluorescence spectra were normalized versus the maximum for each data set.
(§1) Most prior organic fluorophores have been limited by a narrow excitation range, which has hindered their use in multiplexing systems with other fluorophores. By contrast, the absorption and excitation spectra of SNAFR-2 allow it to be excited from 260 nm to 600, a range that includes various common laser lines, for example, HeCd at 325 nm, Ar ion at 488 and 514 nm, and HeNe at 543 nm (FIGS. 1A-D). SNAFR-2 is compatible with commercially available filter sets, such as those used in various spectroscopic instruments and fluorescence microscopes. […] The pK*a was calculated as 4.54 or 4.73 at room temperature, determined as pKa-em and pKa-abs, respectively.

[2] = Excited-state pK*a of SNAFR-2 estimated using the Forster equation; format: physicochemical
Excerpt: as §1

[3] = Spectral properties of SNAFR-2 in DMSO and MeOH; format: physicochemical; settings: for Φ (quantum yield relative to rhodamine 6G in EtOH, Φ = 1): excitation 514 nm
Excerpt: The violet-blue emission increased in these organic solvents as compared to buffer. The green emission was attributed to the neutral form. As expected, the emission corresponding to the anionic form decreased in both solvents.

[4] = Photobleaching decay of SNAFR-2 in MeOH and fluorescein in 0.1 M NaOH; format: physicochemical; settings: SNAFR-2 in MeOH; excitation 488 nm; at least 1800 s; compared with fluorescein in 0.1 M NaOH
Excerpt: We investigated the photostability of SNAFR-2 in MeOH. […] In MeOH, SNAFR-2 can be excited efficiently at 488 nm, which corresponds to an Ar ion laser line. This wavelength also matches well with the absorbance maximum (λabs=493 nm) of fluorescein in aqueous base. We conducted photostability studies in SNAFR-2 and fluorescein solutions, with the concentration of each selected to have an absorbance of 0.03 at 488 nm. The excitation band-pass was opened to 14 nm, the maximum allowed by the instrument we used. The fluorescence signal was collected using both the S- and T-channels of the instrument. S-channel data were collected through a dual monochromator set to the emission maximum of the particular fluorophore. T-channel data were collected through a 550 nm, long-pass filter. High voltage for the photomultiplier tube (PMT) was set to 950 and 500 V for the S and T channels, respectively. […] Fluorescence intensity was monitored at the emission maximum through a dual monochromator following excitation at 543 nm. […] FIGS. 9A and 9B depict the photobleaching decay of SNAFR-2 in MeOH, and of fluorescein in 0.1 M NaOH, monitored at the emission maximum of each compound (FIG. 9A), or through a 550 nm long-pass filter (FIG. 9B). The fluorescence intensity was normalized for each compound as compared to the intensity at time t=0.

[5] = test system: HEp2 cells; assay: Cellular imaging of live cells (uptake and localization); format: cell-based; settings: fluorescence imaging
Excerpt: There was a strong signal from the endoplasmic reticulum, and a smaller signal from mitochondria. […] No obvious staining of the plasma membrane was seen. However, since the plasma membrane has a large surface area, a relatively low surface signal might not have been detected. Three different filter sets, DAPI, FITC, and Texas Red, were used to select for wavelengths corresponding to the blue, green, and red emissions of SNAFR-2, respectively. […] However, autofluorescence was minimal with the longer wavelength filter sets, FITC and Texas Red.

[6] = test system: HEp2 cells; assay: Cytotoxicity, CellTiter Blue Cell Viability assay; format: cell-based; settings: 24 hours, up to 100 μM (FIG. 10), dilutions 10 μM to 1.25 μM
Procedure: Compound toxicity was tested by plating 7500 HEp2 cells per well on a Costar 96-well plate. Cells were allowed to grow for 48 hours and were then fed medium containing twofold dilutions of SNAFR-6 ranging from 10 μM to 1.25 μM. Also, 0.1% Saponin (Sigma) was used as a […] control. Cells were then incubated for 24 hours. Viability was measured using the CellTiter Blue Cell Viability assay (Promega) as per manufacturer's instructions. The fluorescence signal was detected using an excitation wavelength of 520 nm and emission wavelength of 584 nm. Viability was normalized against a scale in which untreated cells were rated 100%, and cells treated with 0.1% saponin were rated 0%. At the concentrations tested, the cytotoxicity of SNAFR-6 was low.

[7] = pKa of SNAFR-6 by absorption and fluorescence titration; aggregation in buffered media; format: physicochemical
Excerpt: Both the neutral and anionic forms could be excited simultaneously at wavelengths from ˜420 nm to ˜530 nm, a range that includes both the 488 and 514 nm argon ion laser spectral lines. The neutral emission could be selectively measured by using, for example, an FITC filter set. Also, the anionic form can be selectively excited using a longer excitation wavelength, ˜540 nm to ˜650 nm. Anionic emission can be selectively measured, using, for example, common Texas Red filter sets. SNAFR-6 is thus a versatile fluorophore for ratiometric measurements.

[8] = Fluorescence properties of SNAFR-6 (Stokes shift, quantum yield); format: physicochemical
Excerpt: The neutral form of SNAFR-6 could be excited from ˜420 nm to ˜530 nm. Its emission was centered at 571 nm. The anionic form could be efficiently excited over a broad range from ˜420 nm to ˜650 nm, with an excitation maximum at 536 nm. The anionic emission ranged from ˜575 nm to ˜850 nm, centered at 733 nm. SNAFR-6 thus has a very large Stokes shift, 197 nm.
FIG. 7 depicts an overlay of the normalized absorption spectrum of SNAFR-6 in 0.1 M NaOH solution, and the NIR emission from its anionic form in phosphate buffer (50 mM, pH 9.3):DMSO 99:1 v/v. The anionic emission at 733 nm was readily excited throughout a ˜200 nm window, a range that includes the common argon ion laser wavelengths of 488 nm and 514 nm. The absorption maximum is located at 536 nm.
The quantum yield of the anionic (NIR) emission of SNAFR-6 in DMSO was 0.09, measured by reference to rhodamine 6G in EtOH. This is a relatively high value for an NIR dye emitting at a wavelength longer than ˜730 nm.

[9] = method 0-0 excitation, room temperature

pKa ([1]; Abs, λisobestic 304, λ1/λ2 265/304, 50 mM phosphate buffer, read-out: pKa): 8.48
pKa ([1]; Abs, λisobestic 304, λ1/λ2 296/304, 50 mM phosphate buffer, read-out: pKa): 8.54
pKa ([1]; Abs, λisobestic 304, λ1/λ2 312/304, 50 mM phosphate buffer, read-out: pKa): 8.48
pKa ([1]; Abs, λisobestic 327, λ1/λ2 312/327, 50 mM phosphate buffer, read-out: pKa): 8.54
pKa ([1]; Abs, λisobestic 327, λ1/λ2 344/327, 50 mM phosphate buffer, read-out: pKa): 8.51
pKa ([1]; Abs, λisobestic 327, λ1/λ2 380/327, 50 mM phosphate buffer, read-out: pKa): 8.51
pKa ([1]; Abs, λisobestic 394, λ1/λ2 344/394, 50 mM phosphate buffer, read-out: pKa): 8.58
pKa ([1]; Abs, λisobestic 394, λ1/λ2 380/394, 50 mM phosphate buffer, read-out: pKa): 8.68
pKa ([1]; Abs, λisobestic 484, λ1/λ2 469/484, 50 mM phosphate buffer, read-out: pKa): 8.47
pKa ([1]; Abs, λisobestic 484, λ1/λ2 511/484, 50 mM phosphate buffer, read-out: pKa): 8.54
pKa ([1]; Abs, λisobestic 484, λ1/λ2 543/484, 50 mM phosphate buffer, read-out: pKa): 8.52
pKa ([1]; Em, λex 325, λ1/λ2 541/597, 50 mM phosphate buffer, read-out: pKa): 8.32
pKa ([1]; Em, λex 325, λ1/λ2 575/597, 50 mM phosphate buffer, read-out: pKa): 8.32
pKa ([1]; Em, λex 325, λ1/λ2 627/597, 50 mM phosphate buffer, read-out: pKa): 8.38
pKa ([1]; Em, λex 488, λ1/λ2 542/600, 50 mM phosphate buffer, read-out: pKa): 8.33
pKa ([1]; Em, λex 488, λ1/λ2 575/600, 50 mM phosphate buffer, read-out: pKa): 8.36
pKa ([1]; Em, λex 488, λ1/λ2 630/600, 50 mM phosphate buffer, read-out: pKa): 8.35
pKa ([1]; Em, λex 514, λ1/λ2 539/595, 50 mM phosphate buffer, read-out: pKa): 8.31
pKa ([1]; Em, λex 514, λ1/λ2 575/595, 50 mM phosphate buffer, read-out: pKa): 8.32
pKa ([1]; Em, λex 514, λ1/λ2 623/595, 50 mM phosphate buffer, read-out: pKa): 8.34
pKa ([1]; absorption spectra, phosphate buffer with 0.25% DMSO, read-out: average pKa-abs): 8.53 ± 0.06
pKa ([1]; different excitation wavelengths, phosphate buffer with 0.25% DMSO, read-out: pKa values inferred from emission spectra): 8.31 to 8.38
pKa ([1]; different isosbestic points, phosphate buffer with 0.25% DMSO, read-out: pKa values calculated from absorption spectra): 8.47 to 8.68
pKa ([1]; emission spectra, phosphate buffer with 0.25% DMSO, read-out: average pKa-em): 8.34 ± 0.02
pK*a value ([2]; across different methods to calculate the excitation frequency): 3.3 to 6.3
pKa-abs* ([2]; method 0-0 absorption): 5.30
pKa-em* ([2]; method 0-0 absorption): 5.11
pKa-abs* [2, 9]: 4.73
pKa-em* [2, 9]: 4.54
pKa-abs* ([2]; method Absorption): 6.34
pKa-em* ([2]; method Absorption): 6.15
pKa-abs* ([2]; method Emission): 3.54
pKa-em* ([2]; method Emission): 3.34
pKa-abs* ([2]; method Excitation): 6.25
pKa-em* ([2]; method Excitation): 6.05
λem (peak locations in the emission spectra) ([3]; DMSO): 560 nm
Φ (quantum yield relative to rhodamine 6G in EtOH, Φ = 1) ([3]; DMSO): 0.33
λem (peak locations in the emission spectra) ([3]; MeOH): 550 nm
Φ (quantum yield relative to rhodamine 6G in EtOH, Φ = 1) ([3]; MeOH): 0.41
entry into cells [5]: readily entered HEp2 cells
Structure (SMILES): O=c1ccc2c(-c3ccccc3)c3ccc4cc(O)ccc4c3oc-2c1 [SNAFR-2]
photostability (photobleaching decay) [4]: far more photostable than fluorescein; also recorded: excellent photostability; also recorded: considerably higher photostability

entry into cells [5]: readily enters cells
pKa ([7]; absorption titration): 8.18 ± 0.03
pKa ([7]; fluorescence titration): 8.1 ± 0.03
quantum yield of the anionic (NIR) emission ([8]; DMSO, by reference to rhodamine 6G in EtOH): 0.09
Stokes shift ([8]; anionic form, excitation maximum 536 nm, emission 733 nm, aqueous solution): 197 nm and ~200 nm
Structure (SMILES): O=c1ccc2c(-c3ccccc3)c3cc4ccc(O)cc4cc3oc-2c1 [SNAFR-6]
cytotoxicity (cell viability) [6]: low and low cytotoxicity
aggregation ([7]; buffered media): Significant aggregation in buffered media was not seen
